Laboratory results: patent US11484608B2, “Non-invasive assessment of hepatic mitochondrial metabolism by positional isotopomer NMR tracer analysis (PINTA)” (YALE UNIVERSITY, priority 2017, dated 2022)

Test system: hepatic mitochondrial oxidation, NAFLD, glucose tolerance
Assay: Chronic 10-day glucagon infusion in high fat fed rats
Format: in vivo, rat
Description: During week 3 of the diet, rats underwent surgery under isoflurane anesthesia to place catheters in the jugular vein and carotid artery, and recovery was confirmed by regaining the pre-surgical body weight prior to in vivo studies. […] Rats were fasted for 8 hr prior to sacrifice with IV pentobarbital.
In the rat studies, blood was collected from the jugular venous catheter. In both species, samples were immediately centrifuged (12,000 rpm) to separate plasma from red blood cells. PINTA analysis of hepatic mitochondrial fluxes was employed in both rats and mice (see Example 1). Briefly, mice were infused with a two-hour primed (5 min, 3×)-continuous infusion of [3-^13C] lactate (40 μmol kg^−1 min^−1) and [1,2,3,4,5,6,6-^2H7] glucose (0.1 mg kg^−1 min^−1). Rats were infused with lactate at the same rate, as well as [3-^3H] glucose (0.1 mCi kg^−1 min^−1). At the conclusion of the study, animals were euthanized with IV pentobarbital.
In the glucose tolerance tests, rodents were injected with 1 g kg^−1 50% dextrose (rats) or 10% dextrose (mice) intraperitoneally. Blood samples were taken through the venous catheter (rats) or by tail bleeding (mice) for measurement of plasma glucose and insulin concentrations as described below (Biochemical analysis).
Plasma glucose concentrations were measured using a YSI Glucose Analyzer. […] Plasma NEFA concentrations were measured using the Wako NEFA assay, while plasma glycerol and plasma and liver amino acid concentrations were measured by GC/MS. […] Protein concentrations were measured by Western blot, using antibodies from Santa Cruz (PC, PEPCK, CAMKII), Cell Signaling (ATGL, pCAMKIV, CAMKIV, pCRTC2, CRTC2, pACC, ACC, pAMPK, AMPK, pHSL, HSL, GAPDH, and β-actin), Novus Biologicals (pCAMKII), Abcam (pATGL), LSBio (pInsP3R-I), and BD Transduction Laboratories (InsP3R-II, InsP3R-III, PKCε). The antibody to pATGL was kindly provided by Dr. Hei Sook Sul, while the antibody to total InsP3R-I was custom-made using an epitope against the last 18 amino acids of InsP3R-I. Gluconeogenic gene mRNA expression was measured by qPCR^45 using primers sequences as follows: […]

[1] = HFD rats, two hours after withdrawal of glucagon infusion
[2] = intraperitoneal glucose tolerance test, HFD rats
[3] = rat liver, chronic glucagon infusion
[4] = rats, chronic glucagon infusion

glucagon
food intake, body weight, and hepatic ceramide content (HFD rats, chronic glucagon): similar
hepatic VPK flux (HFD rats, chronic glucagon): did not change
hepatic VPK flux as proportion of hepatic VPC flux (HFD rats, chronic glucagon): 15-20%
liver glycogen content (HFD rats, chronic glucagon): reductions
protein kinase C-epsilon (PKCε) translocation (HFD rats, chronic glucagon): marked reductions
reductions in hepatic triglyceride and diacylglycerol concentrations (HFD rats, chronic glucagon): 50-90%
hepatic acetyl- and malonyl-CoA content (HFD rats, glucagon withdrawn four hours before sacrifice): suppression
increase in rates of hepatic mitochondrial oxidation (HFD rats, ten days glucagon 5 ng kg^−1 min^−1): two-fold
reductions in fasting plasma glucose [1]: 1.4 mM
reductions in fasting plasma insulin concentrations [1]: 50%
reduction in glucose area under the curve [2]: 20%
reduction in insulin area under the curve [2]: 60%
Cytosolic DAG C16, C16 [3]: 1.8 ± 0.2 nmol/g
Cytosolic DAG C16, C18_2 [3]: 7.2 ± 1.0 nmol/g
Cytosolic DAG C16 C20_4 [3]: 0.5 ± 0.1 nmol/g
Cytosolic DAG C18, C16 [3]: 1.7 ± 0.1 nmol/g
Cytosolic DAG C18, C18 [3]: 5.6 ± 0.6 nmol/g
Cytosolic DAG C18 C20_4 [3]: 13.6 ± 1.1 nmol/g
Cytosolic DAG C18_1, C18 [3]: 0.6 ± 0.1 nmol/g
Cytosolic DAG C18_1, C18_1 [3]: 4.2 ± 0.5 nmol/g
Cytosolic DAG C18_1, C18_2 [3]: 4.0 ± 0.5 nmol/g
Cytosolic DAG C18_1 C16 [3]: 5.3 ± 0.9 nmol/g
Cytosolic DAG C18_2, C18 [3]: 0.9 ± 0.1 nmol/g
Cytosolic DAG C18_2, C18_2 [3]: 3.6 ± 0.6 nmol/g
Cytosolic DAG C20_4 C20_5 [3]: 0.5 ± 0.1 nmol/g
Cytosolic DAG Total DAG [3]: 38.3 ± 3.1 nmol/g
Membrane DAG C16, C16 [3]: 10.2 ± 2.6 nmol/g
Membrane DAG C16, C18_2 [3]: 97.3 ± 13.4 nmol/g
Membrane DAG C16 C20_4 [3]: 4.2 ± 0.7 nmol/g
Membrane DAG C18, C16 [3]: 4.9 ± 0.5 nmol/g
Membrane DAG C18, C18 [3]: 6.5 ± 0.5 nmol/g
Membrane DAG C18 C20_4 [3]: 21.5 ± 2.4 nmol/g
Membrane DAG C18_1, C18 [3]: 3.6 ± 0.4 nmol/g
Membrane DAG C18_1, C18_1 [3]: 44.1 ± 7.2 nmol/g
Membrane DAG C18_1, C18_2 [3]: 58.7 ± 7.8 nmol/g
Membrane DAG C18_1 C16 [3]: 50.0 ± 9.0 nmol/g
Membrane DAG C18_2, C18 [3]: 7.8 ± 0.7 nmol/g
Membrane DAG C18_2, C18_2 [3]: 44.0 ± 10.7 nmol/g
Membrane DAG Total DAG [3]: 364.0 ± 44.7 nmol/g
Ceramide C16 [4]: 40.1 ± 10.2 nmol/g
Ceramide C18 [4]: 7.1 ± 1.4 nmol/g
Ceramide C20 [4]: 15.9 ± 3.7 nmol/g
Ceramide C22 [4]: 26.9 ± 5.2 nmol/g
Ceramide C24 [4]: 52.8 ± 10.9 nmol/g
Ceramide C24:1 [4]: 15.2 ± 3.9 nmol/g
Total ceramide [4]: 158.0 ± 33.4 nmol/g
increases in hepatic mitochondrial fat oxidation (VFAO) (short-term continuous glucagon treatment): two-fold
